Key:
Hyposmic patients = assay: Open label trial of inhalable PDE inhibitor in hyposmic patients (Examples 3, 4); type: in vivo, human; details: nasal administration, not more than 500 μg
Experimental: Hyposmic patients for whom the etiology of smell loss is not associated with head injury or allergic rhinitis are enrolled in an open label trial of inhalable theophylline. Patients are started at an initial dose of not more than 500 μg formulated as a liquid spray or dry powder to be delivered as a metered dose. Initially only local patients are enrolled so that quicker dose titration is achieved. Groups of 5 patients are started on not more than 500 μg of theophylline and continued for 1 month.
Patients are tested for improvement in smell acuity using the standard forced choice technique using four odors as described in Example 1. Additionally, subjective measurements of smell function are obtained using a scale from 0-100 as described in Example 1. Blood samples are also drawn to ascertain blood theophylline level to gauge its relationship to the expected recovery of smell.
Hyposmic patients for whom the etiology of smell loss is not associated with head injury or allergic rhinitis are enrolled in an open label trial of an inhalable PDE1 inhibitor. […]

total PDE activity = details: human lung extracts; therapeutic concentrations; cited from earlier work
patients with hyposmia = assay: Subjective overall smell function response to oral theophylline; type: in vivo, human
Experimental: Independently, patients were also required to grade their ability to smell daily on a scale from 0-100, with 0 reflecting no overall smell function over a 24 hour period, 100 reflecting normal overall smell function over this period and numbers between 0-100 reflecting their estimation of their overall ability to smell odors over this period.
After determination of hyposmia, patients were treated in an open label, fixed design, controlled open trial. Patients were given an oral extended release theophylline in divided daily doses taken in the middle of breakfast and lunch. All patients were initially given 200 mg of theophylline; changes in this dose were made based upon subjective responses to therapy. If at a subsequent return visit, patients reported ≥5% subjective improvement in overall smell function, they continued on this same dose of theophylline and were reevaluated after four to six months of continued treatment. Results from any subsequent return from these improved patients were not included in any subsequent data report. All subsequent comparisons between treated and untreated patients were made only between those patients continuing in the study compared to their own measurements obtained in the untreated state. If patients reported <5% subjective improvement, their theophylline dose was increased by 200 mg daily and they were scheduled for retesting at the study site after two to four months at this new dosage. For patients that reported <5% improvement, this sequence continued until patients reached 800 mg of theophylline, at which time the study was considered completed.
Patients returned for reevaluation after two to four months of treatment. Measurements of blood serum theophylline were measured by a fluorescence polarization assay (Abbott, Chicago, IL). At this time, subjective changes in smell function were measured independently (compared to patient's memory of previous normal smell function monitored by use of the patients' daily measurements) using the scale from −100-0-+100 previously described (vs). After independently recording their subjective responses, smell function was measured for all four odors with DT, RT, ME and H determined without recourse to prior measurements.
Subjective overall changes in smell acuity were reported by telephone and by FAX or email at two-four month intervals after treatment was initiated using the standardized form in which they measured daily changes in smell acuity using the −100-0-+100 scale as noted above (vs). Using the same criteria noted above, if at their initial two-four month call-in they reported improvement in smell acuity of ≥5%, they continued at 200 mg and returned to the study site at four-six months on this treatment dose. If they reported improvement in smell acuity of <5% their dose of theophylline was increased to 400 mg for an additional two-four months and they then called the study site at the end of this period.

Cn1c(=O)c2[nH]cnc2n(C)c1=O [theophylline]
recovery of smell acuity versus oral administration (Hyposmic patients): at least an equivalent recovery of smell acuity
inhibition of total PDE activity (total PDE activity): 5 to 10%
patients improved ≥5% (subjective) (patients with hyposmia; oral 200 mg daily, 34 of 199 returning patients): 17.1%
improved patients who considered smell function returned to normal (patients with hyposmia; oral 200 mg daily, nine of the 34 improved): 26.5%
patients reporting return to normal (patients with hyposmia; oral 200 mg, one of the improved non-returning patients): 14.3%
patients reporting >5% improvement (patients with hyposmia; oral 200 mg, seven of the 15 non-returning patients): 46.7%
patients improved ≥5% (subjective) (patients with hyposmia; oral 400 mg daily, 35 of 120 patients): 29.2%
improved patients who considered smell function returned to normal (patients with hyposmia; oral 400 mg daily, three of the 35 improved): 8.6%
patients who considered smell function returned to normal (patients with hyposmia; oral 600 mg daily, 17 of 160 patients): 10.6%
patients improved ≥5% (subjective) (patients with hyposmia; oral 600 mg daily, 66 of 160 patients): 41.2%
patients improved ≥5% (subjective) (patients with hyposmia; oral 800 mg daily, 15 of 28 patients): 53.6%
patients who considered smell function returned to normal (patients with hyposmia; oral 800 mg daily, three patients): 33%
improved patients reporting return to normal (patients with hyposmia; oral 200-600 mg, Type III hyposmia, 3 of 5): 60%
improved patients reporting return to normal (patients with hyposmia; oral 200-800 mg, Type I hyposmia, 5 of 32): 15.6%
improved patients reporting return to normal (patients with hyposmia; oral 200-800 mg, Type II hyposmia, 26 of 129): 20.2%
time course of subjective response (patients with hyposmia; oral theophylline): little or no improvement before four-six weeks of treatment
responsive patients who considered smell function returned to normal (patients with hyposmia; whole study, 34 of 157): 21.7%
